{"source": "paper PMC4096217", "about": "(Journal of Medicinal Chemistry, 2014)", "test_system": "BR+ cancer cell lines (MX-1, MCF-7, ID8, L1210FR)", "experiment": "MTT cytotoxicity, 72 h, summarised over the four BR+ cancer cell lines", "format": "cell-based", "settings": "Table 1 entries 1 and 2"}
{"substance": "SB-T-1214 [taxoid 1]", "values": [{"measurement": "Cytotoxicity relative to camptothecin (times stronger)", "value": "148–846 times"}]}
